Results as given in patent US8946205B2, “1,2,4-triazolo[4,3-a]pyridine derivatives and their use as positive allosteric modulators of mGluR2 receptors” (Janssen Pharmaceuticals, Inc., priority 2009, dated 2015).
Read-outs that look alike come from different tables or passages of the source.

Tests used:
human mGluR2 receptor = biological target: T1, human mGluR2 receptor (Homo sapiens, UniProt Q14416); test: [35S]GTPγS binding assay (PAM assay, membranes from CHO cells transfected with the human mGluR2 receptor); assay type: biochemical; details: in presence of glutamate at EC20; pEC50 = -log EC50 (mol/L); read-out: GTPγS-hR2 PAM pEC50 (converted)
T1 construct: expressed in transfected cells; host or cells: CHO cells (membranes)
T1 sequence (Q14416 19-872): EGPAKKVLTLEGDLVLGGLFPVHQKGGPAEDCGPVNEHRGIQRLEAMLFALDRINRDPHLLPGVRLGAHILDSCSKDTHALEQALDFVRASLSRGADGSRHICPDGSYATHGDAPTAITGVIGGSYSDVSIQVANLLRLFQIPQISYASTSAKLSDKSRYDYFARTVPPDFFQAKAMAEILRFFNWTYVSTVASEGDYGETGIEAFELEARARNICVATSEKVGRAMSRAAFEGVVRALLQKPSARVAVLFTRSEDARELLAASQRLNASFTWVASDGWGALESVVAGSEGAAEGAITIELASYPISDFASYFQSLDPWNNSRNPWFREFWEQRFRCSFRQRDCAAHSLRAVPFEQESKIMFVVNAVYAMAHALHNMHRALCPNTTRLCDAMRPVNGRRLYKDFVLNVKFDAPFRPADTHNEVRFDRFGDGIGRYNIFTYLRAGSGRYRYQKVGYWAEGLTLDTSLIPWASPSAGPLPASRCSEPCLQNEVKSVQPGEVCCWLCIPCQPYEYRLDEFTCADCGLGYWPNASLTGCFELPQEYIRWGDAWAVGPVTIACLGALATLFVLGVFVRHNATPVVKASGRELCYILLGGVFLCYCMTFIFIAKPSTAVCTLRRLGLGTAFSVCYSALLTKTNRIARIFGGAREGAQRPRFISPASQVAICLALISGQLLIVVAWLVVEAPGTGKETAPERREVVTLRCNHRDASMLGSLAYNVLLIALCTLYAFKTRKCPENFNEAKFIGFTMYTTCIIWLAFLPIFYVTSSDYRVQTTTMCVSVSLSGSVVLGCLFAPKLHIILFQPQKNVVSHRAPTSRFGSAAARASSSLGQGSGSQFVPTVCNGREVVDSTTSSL
Protocol: The [^35S]GTPγS binding assay is a functional membrane-based assay used to study G-protein coupled receptor (GPCR) function whereby incorporation of a non-hydrolysable form of GTP, [^35S]GTPγS (guanosine 5′-triphosphate, labelled with […] ^35S), is measured. The G-protein α subunit catalyzes the exchange of guanosine 5′-diphosphate (GDP) by guanosine triphosphate (GTP) and on activation of the GPCR by an agonist, [^35S]GTPγS, becomes incorporated and cannot be cleaved to continue the exchange cycle (Harper (1998) Current Protocols in Pharmacology 2.6.1-10, John Wiley & Sons, Inc.). […] Here we describe the use of the [^35S]GTPγS binding assay using membranes from cells transfected with the human mGluR2 receptor and adapted from Schaffhauser et al. ((2003) Molecular Pharmacology 4:798-810) for the detection of the positive allosteric modulation (PAM) properties of the compounds of this invention.
CHO-cells were cultured to pre-confluence and stimulated with 5 mM butyrate for 24 h, prior to washing in PBS, and then collected by scraping in homogenisation buffer (50 mM Tris-HCl buffer, pH 7.4, 4° C.). Cell lysates were homogenized briefly using an ultra-turrax homogenizer. The homogenate was centrifuged at 16,000 RPM (Sorvall RC-5C plus rotor SS-34) for 10 minutes and the supernatant discarded. The pellet was resuspended in 5 mM Tris-HCl, pH 7.4 and centrifuged again (18,000 RPM, 20 min, 4° C.). The final pellet was resuspended in 50 mM Tris-HCl, pH 7.4 and stored at −80° C. in appropriate aliquots before use. Protein concentration was determined by the Bradford method (Bio-Rad, USA) with bovine serum albumin as standard.
Measurement of mGluR2 positive allosteric modulatory activity of test compounds was performed as follows. Test compounds and glutamate were diluted in assay buffer containing 10 mM HEPES acid, 10 mM HEPES salt, pH 7.4, 100 mM NaCl, 3 mM MgCl2 and 10 μM GDP. Human mGlu2 receptor-containing membranes were thawed on ice and diluted in assay buffer supplemented with 14 μg/ml saponin. Membranes were pre-incubated with compound alone or together with a predefined (˜EC20) concentration of glutamate (PAM assay) for 30 min at 30° C. After addition of [^35S]GTPγS (f.c. 0.1 nM) microplates were shaken briefly and further incubated to allow [^35S]GTPγS incorporation on activation (30 minutes, 30° C.). Final assay mixtures contained 7 μg of membrane protein in 10 mM HEPES acid, 10 mM HEPES salt, pH 7.4, 100 mM NaCl, 3 mM MgCl2,10 μM GDP and 10 μg/ml saponin. Total reaction volume was 200 μl. Reactions were terminated by rapid filtration through Unifilter-96 GF/B filter plates (Packard, Meriden, Conn.) using a 96-well Packard filtermate harvester. Filters were washed 6 times with ice-cold 10 mM NaH2PO4/10 mM Na2HPO4, pH 7.4. Filters were then air-dried, and 40 μl of liquid scintillation cocktail (Microscint-O) was added to each well. Membrane-bound radioactivity was counted in a Microplate Scintillation and Luminescence Counter from Packard.
The concentration-response curves of representative compounds of the present invention—obtained in the presence of EC20 of mGluR2 agonist glutamate to determine positive allosteric modulation (PAM)—were generated using the Lexis software interface (developed at J&J). Data were calculated as % of the control glutamate response, defined as the maximal response that is generated upon addition of glutamate alone. Sigmoid concentration-response curves plotting these percentages versus the log concentration of the test compound were analyzed using non-linear regression analysis. The concentration producing half-maximal effect is then calculated as EC50. The pEC50 values below are calculated as the −log EC50 (wherein EC50 is expressed in mol/L). […]

male NMRI mice = test: Phencyclidine (PCP)-induced hyperlocomotion in mice (video tracking); assay type: in vivo; details: for ED50: Mus musculus, sc, PCP 5 mg/kg s.c., criterion total distance <5500 counts, read-out: ED50 PCP-Inh. (inhibition of PCP-induced hyperlocomotion)
Protocol: On the day of experiments, the mice were brought into the procedural room. They were housed individually and allowed to acclimate for at least a half hour prior to testing. Although the studies were conducted during the light cycle (from 8:00 to 16:00 h), the procedure room was only sparsely lit (3 to 30 LUX) to provide better contrast for the video tracking. Local lighting was used for the injection procedures. During each trial, an individual mouse was placed in an open field arena (grey PVC cylinder with a height of 40 cm and a diameter of 22.5 cm). Each arena was placed on an infrared LED (8×8 LEDs)-lit box (white PVC squared box; 40×40 cm^2; height 12.5 cm). Each mouse was placed in the center of the arena and allowed to explore freely for 30 min. After each trial, the arena was cleaned with a wet and subsequently with a dry cleaning cloth. An infrared sensitive tube camera and a white light source (in arena: 4-7 LUX) were mounted to the ceiling above the observation chamber to record and input activity to a computer. Animal behavior was recorded and analyzed using the Noldus Ethovision XT Video Tracking System (Version 3.1; Noldus, Wageningen, The Netherlands). The total distance traveled (cm) was calculated. Data were then exported to data management systems for further analysis and reporting. Phencyclidine (PCP)-Induced Hyperlocomotion in Mice Test compound or solvent was administered at a pre-defined time before measurement (standard: 30 min) to male NMRI mice that were challenged with phencyclidine (PCP; 5 mg/kg, s.c.) 30 min before measurement. Activity was measured for a period of 30 min. Criterion for drug-induced inhibition of hyperlocomotion: total distance<5500 counts (3.9% false positives in controls; n=154). Conditioned Avoidance Response (CAR) Test Apparatus The apparatus consisted of an inner box surrounded by an outer box. The inner box was composed of four walls of transparent, synthetic material (length×width×height: 30×30×30 cm), an open top, and a grid floor made of 15 pairs of iron bars (2 mm diameter; 6 mm inter-bar distance). Odd and even bars were connected with a source of alternative current (1.0 mA; Coulbourn Instruments Solid State Shocker/Distributor), which could be interrupted by a switch. The outer box was composed of the same material (length×width×height: 40×40×36 cm), also with an open top, with a distance of 5 cm between the inner and outer box on all sides. To decrease the amount of environmental stimuli, three walls of the outer box were made non-transparent. The front wall was left transparent to allow the necessary inspection of the animal during the test. The upper edge of the outer and inner box served as a target for the rats on which to jump with fore- and hind-paws, respectively. Avoidance Conditioning and Selection of Animals From their arrival in the laboratory on the experimental day, male Wiga Wistar rats (230±30 g) were housed in individual cages provided with bedding material. […] Experimental Sessions The rats were tested 3 times, i.e. at 60, 90 and 120 min after the injection of test compound or solvent. Latency to avoidance was recorded. The median avoidance response obtained over the three experimental sessions for each rat were used for further calculations. […] Sleep Wake Electroencephalography (SW-EEG) in Rats SW-EEG analyses are a highly sensitive read-out of a compound's central functional activity that may provide additional insight in the potential therapeutic application (i.e. via drug classification fingerprinting). […] Internal efforts have confirmed that this effect is mGlu2 receptor-mediated, i.e. is absent in mGlu2 KO mice. Sleep abnormalities are often associated with CNS disorders; as such, the potential use of mGlu2 modulators could also have benefit in the treatment of CNS disorders in which (REM) sleep aberrations are manifested. […]

male Wiga Wistar rats = test: Conditioned avoidance response (CAR) test in rats; assay type: in vivo; details: for ED50: Rattus norvegicus, criterion median avoidance latency >8 s
Protocol: On the day of experiments, the mice were brought into the procedural room. They were housed individually and allowed to acclimate for at least a half hour prior to testing. Although the studies were conducted during the light cycle (from 8:00 to 16:00 h), the procedure room was only sparsely lit (3 to 30 LUX) to provide better contrast for the video tracking. Local lighting was used for the injection procedures. During each trial, an individual mouse was placed in an open field arena (grey PVC cylinder with a height of 40 cm and a diameter of 22.5 cm). Each arena was placed on an infrared LED (8×8 LEDs)-lit box (white PVC squared box; 40×40 cm^2; height 12.5 cm). Each mouse was placed in the center of the arena and allowed to explore freely for 30 min. After each trial, the arena was cleaned with a wet and subsequently with a dry cleaning cloth. An infrared sensitive tube camera and a white light source (in arena: 4-7 LUX) were mounted to the ceiling above the observation chamber to record and input activity to a computer. Animal behavior was recorded and analyzed using the Noldus Ethovision XT Video Tracking System (Version 3.1; Noldus, Wageningen, The Netherlands). The total distance traveled (cm) was calculated. Data were then exported to data management systems for further analysis and reporting. Phencyclidine (PCP)-Induced Hyperlocomotion in Mice Test compound or solvent was administered at a pre-defined time before measurement (standard: 30 min) to male NMRI mice that were challenged with phencyclidine (PCP; 5 mg/kg, s.c.) 30 min before measurement. Activity was measured for a period of 30 min. Criterion for drug-induced inhibition of hyperlocomotion: total distance<5500 counts (3.9% false positives in controls; n=154). Conditioned Avoidance Response (CAR) Test Apparatus The apparatus consisted of an inner box surrounded by an outer box. The inner box was composed of four walls of transparent, synthetic material (length×width×height: 30×30×30 cm), an open top, and a grid floor made of 15 pairs of iron bars (2 mm diameter; 6 mm inter-bar distance). Odd and even bars were connected with a source of alternative current (1.0 mA; Coulbourn Instruments Solid State Shocker/Distributor), which could be interrupted by a switch. The outer box was composed of the same material (length×width×height: 40×40×36 cm), also with an open top, with a distance of 5 cm between the inner and outer box on all sides. To decrease the amount of environmental stimuli, three walls of the outer box were made non-transparent. The front wall was left transparent to allow the necessary inspection of the animal during the test. The upper edge of the outer and inner box served as a target for the rats on which to jump with fore- and hind-paws, respectively. Avoidance Conditioning and Selection of Animals From their arrival in the laboratory on the experimental day, male Wiga Wistar rats (230±30 g) were housed in individual cages provided with bedding material. […] Experimental Sessions The rats were tested 3 times, i.e. at 60, 90 and 120 min after the injection of test compound or solvent. Latency to avoidance was recorded. […] Sleep Wake Electroencephalography (SW-EEG) in Rats SW-EEG analyses are a highly sensitive read-out of a compound's central functional activity that may provide additional insight in the potential therapeutic application (i.e. via drug classification fingerprinting). […]

rats = test: Sleep wake electroencephalography (SW-EEG) in rats; assay type: in vivo
Protocol: On the day of experiments, the mice were brought into the procedural room. They were housed individually and allowed to acclimate for at least a half hour prior to testing. Although the studies were conducted during the light cycle (from 8:00 to 16:00 h), the procedure room was only sparsely lit (3 to 30 LUX) to provide better contrast for the video tracking. Local lighting was used for the injection procedures. During each trial, an individual mouse was placed in an open field arena (grey PVC cylinder with a height of 40 cm and a diameter of 22.5 cm). Each arena was placed on an infrared LED (8×8 LEDs)-lit box (white PVC squared box; 40×40 cm^2; height 12.5 cm). Each mouse was placed in the center of the arena and allowed to explore freely for 30 min. After each trial, the arena was cleaned with a wet and subsequently with a dry cleaning cloth. An infrared sensitive tube camera and a white light source (in arena: 4-7 LUX) were mounted to the ceiling above the observation chamber to record and input activity to a computer. Animal behavior was recorded and analyzed using the Noldus Ethovision XT Video Tracking System (Version 3.1; Noldus, Wageningen, The Netherlands). The total distance traveled (cm) was calculated. Data were then exported to data management systems for further analysis and reporting. Phencyclidine (PCP)-Induced Hyperlocomotion in Mice Test compound or solvent was administered at a pre-defined time before measurement (standard: 30 min) to male NMRI mice that were challenged with phencyclidine (PCP; 5 mg/kg, s.c.) 30 min before measurement. Activity was measured for a period of 30 min. Criterion for drug-induced inhibition of hyperlocomotion: total distance<5500 counts (3.9% false positives in controls; n=154). […] Latency to avoidance was recorded. […] Sleep Wake Electroencephalography (SW-EEG) in Rats SW-EEG analyses are a highly sensitive read-out of a compound's central functional activity that may provide additional insight in the potential therapeutic application (i.e. via drug classification fingerprinting). […]

[1] = po, compound administered orally (*), read-out: ED50 CAR-Inh. (inhibition of conditioned avoidance response), administered orally

O[C@H]1CC[C@H](n2ccc3cc(-c4ccn5c(CC6CC6)nnc5c4C(F)(F)F)ccc32)CC1 [Compound 4]
EC50 (human mGluR2 receptor): 11.2 nM
inhibition of PCP-induced hyperlocomotion (in words) (male NMRI mice): inhibited
ED50 (male NMRI mice): 13.2 mg/kg
inhibition of the conditioned avoidance response (in words) (male Wiga Wistar rats): inhibited
ED50 (male Wiga Wistar rats; not marked as oral, read-out: ED50 CAR-Inh. (inhibition of conditioned avoidance response)): 20 mg/kg
ED50 (male Wiga Wistar rats; [1]): ≥ 40 mg/kg
melting point: 206.9 °C

Clc1c(-c2ccc3c(ccn3-c3cccnc3)c2)ccn2c(CC3CC3)nnc12 [Compound 17, 8-Chloro-3-cyclopropylmethyl-7-[1-(pyridin-3-yl)-1H-indol-5-yl]-[1,2,4]triazolo[4,3-a]pyridine]
EC50 (human mGluR2 receptor): 79.4 nM
inhibition of PCP-induced hyperlocomotion (in words) (male NMRI mice): inhibited
ED50 (male NMRI mice): 10.7 mg/kg
inhibition of the conditioned avoidance response (in words) (male Wiga Wistar rats): inhibited
ED50 (male Wiga Wistar rats; [1]): 20 mg/kg
effect on REM sleep (rats; oral administration): dose-dependently decrease REM sleep
lowest active dose for decrease of REM sleep (rats; p.o.): 10 mg/kg

Cc1ccc(-n2ccc3cc(-c4ccn5c(CC6CC6)nnc5c4Cl)cc(F)c32)cn1 [Compound 31]
EC50 (human mGluR2 receptor): 22.9 nM
inhibition of PCP-induced hyperlocomotion (in words) (male NMRI mice): inhibited
ED50 (male NMRI mice): 7.1 mg/kg
melting point: 243.8 °C

Cc1cc(-n2ccc3cc(-c4ccn5c(CC6CC6)nnc5c4C(F)(F)F)ccc32)ccn1 [Compound 46]
EC50 (human mGluR2 receptor): 8.13 nM
melting point: > 300 °C

Cc1cc(-n2ccc3cc(-c4ccn5c(CC6CC6)nnc5c4Cl)ccc32)ccn1 [Compound 47]
EC50 (human mGluR2 receptor): 39.8 nM
melting point: > 300 °C

Fc1cc(-c2ccn3c(CC4CC4)nnc3c2Cl)cc2ccn(-c3cccnc3)c12 [Compound 48]
EC50 (human mGluR2 receptor): 46.8 nM
melting point: 195.6 °C

CCOCc1nnc2c(C)c(-c3ccc4c(ccn4-c4ccc(C)nc4)c3)ccn12 [Compound 49]
EC50 (human mGluR2 receptor): 174 nM
melting point: 108.5 °C

N[C@@]1(C(=O)O)CS(=O)(=O)[C@H]2[C@H](C(=O)O)[C@H]21 [LY404039, reference compound]
effect on REM sleep (rats; 3 mg/kg, p.o.): affect REM sleep
